According to patent US6017877A, “Method and composition for treating thrombosis” (priority 1994, dated 2000):
Values joined by “and” are separate entries in the source; they are usually repeats but may differ in a detail not shown here. Equal values may be shown once. Read-outs that look alike come from different tables or passages of the source.

Assays:
[1] = system: platelets; experiment: Thrombin-stimulated platelet aggregation (Table I); type: cell-based, human; settings: thrombin 2 U/ml, gel-filtered platelets
Experimental: Platelet aggregation assays were performed following the methods of this Example or those of Example IX.G. Platelet aggregation was assessed using the method of Born, Nature 194:927-929 (1962), incorporated herein by reference. Briefly, the change in light transmission was measured through a stirred suspension of platelets in an aggregometer (Model 400 VS, Chrono-Log, Havertown, Pa., USA). […] In studies using thrombin, the PRP was gel-filtered on Sepharose 2B in divalent ion-free Tyrode's solution containing 2% BSA. For all studies, the reference standard was platelet-poor plasma, which was obtained by centrifuging PRP at 1000× g for 5 min.
All aggregation studies were performed at 37° C. with a constantly stirred suspension of 3×10^8 platelets/ml. (Platelet count was determined with the aid of a hemacytometer.) Peptides and stimulants were added to these suspensions in 1% dilutions. The PRP and gel-filtered platelets were used within three hours from the time of blood collection.
Peptide anti-aggregation potencies were determined from dose-responsive curves for the inhibition of the maximum aggregation responses stimulated by physiologic doses of ADP (10 μm) and thrombin (2 U/ml).

[2] = system: platelets; type: cell-based, human; settings: ADP 10 μm, platelet-rich plasma; read-out: ADP-Stimulated Aggregation (IC50)
[3] = system: platelets; experiment: Ex vivo platelet aggregation in canine coronary thrombosis model; settings: dog; for ex vivo platelet aggregation by all three stimuli: 10 mg/kg; for reduction of ex vivo aggregation relative to control levels: 3 mg/kg
Experimental: For all ex vivo studies (see FIG. 3), control aggregation values were standardized to the percentages of light transmission observed in PRP and PPP samples (0% and 100%, respectively).
Animals were randomly assigned to two treatment groups: vehicle control (i.e., normal saline) or RGD peptides at various concentrations. Peptides were administered intra-atrially in both bolus and continuous injections. Each bolus injection consisted of 0.5 to 10 mg/kg and was administered 15 minutes before application of the current. A continuous infusion of the same peptide was then started immediately after completion of this initial injection. Animals received a 25 μg/kg/min to 200 μg/kg/min infusion. The anti-thrombotic effects of the peptides were monitored until 30 minutes after the occurrence of a persistent, occlusive thrombus or five hours after the initiation of electrical stimulation (whichever resulted first). If an occlusive thrombus had not developed within four hours after the initiation of current, the peptide infusion was stopped.
Platelet counts and ex vivo aggregation studies were performed one hour before and 1, 3, and 5 hours after application of anodal direct current.
Platelet aggregation was also determined ex vivo at one, three, and five hours after current application. For these studies, arachidonic acid, or collagen was again used to stimulate the platelets.

[4] = Rabbit peripheral blood flow (PBF), laser dopler flow probe; type: in vivo; settings: time 10 min, bolus dose printed with drug
Experimental: In an alternative series of experiments, (Table 2) PBF was measured quantitatively with a laser dopler flow probe (Perimed). The probe was positioned securely over the vascular bed of one ear and flow monitored continuously. Each inhibitor was infused and CBT measured in the opposing ear. No arterial catheter was placed for blood sampling, consequently XPA was measured in these animals.

[5] = system: platelets; experiment: Platelet aggregation assay of Example XI; type: cell-based; settings: for reactivity relative to 8X in platelet aggregation: fold more reactive than 8X
Experimental: Platelet aggregation was assessed using the method of Born, Nature 194:927-929 (1962), incorporated herein by reference. Briefly, the change in light transmission was measured through a stirred suspension of platelets in an aggregometer (Model 400 VS, Chrono-Log, Havertown, Pa., USA). […] In studies using thrombin, the PRP was gel-filtered on Sepharose 2B in divalent ion-free Tyrode's solution containing 2% BSA. For all studies, the reference standard was platelet-poor plasma, which was obtained by centrifuging PRP at 1000× g for 5 min.
(Platelet count was determined with the aid of a hemacytometer.) Peptides and stimulants were added to these suspensions in 1% dilutions. The PRP and gel-filtered platelets were used within three hours from the time of blood collection.

[6] = molecular target: GP IIb/IIIa (Homo sapiens, UniProt P05106+P08514); experiment: Inhibition of binding of various ligands to GP IIb/IIIa; settings: fibrinogen vs fibronectin and vitronectin
[7] = molecular target: T1, vitronectin receptor (Vn-R) (Homo sapiens, UniProt P05106+P06756); experiment: VnR binding, ELISA or liposome attachment assay (Table I)
T1 construct: from tissue; host or cells: human placenta
Experimental: Except where stated, all procedures were carried out at 4° C. The peptide column was washed with three volumes of Tris-buffered saline (TBS) containing 1 mM Ca^2+ and Ca^2+ and 25 mM OG and then with TBS containing 1 mM 25 mM octyl thioglucoside (OTG) at room temperature. […] Finally, Ca^2+ and Mg^+2 were added to eluted fractions to achieve final concentrations of 1 mM for both ions.
Maxisorp microtiter plates were coated with 2 μg/ml human vitronectin dissolved in PBS (50 ml/well) and stored overnight at 4° C. The plates were washed two times with PBS-0.05% Tween-20 (wash buffer) and blocked by incubating with about 150 μl/well of assay buffer (1%, BSA (RIA grade or better) in 50 mM Tris-HCl, 100 mM NaCl, 1 mM MgCl2, CaCl2, MnCl2 pH 7.4) for 60 minutes. Dilutions of standards were prepared and putative inhibitors (Table 2) were dissolved in assay buffer. The blocked plates were emptied and 20 μl/well of inhibitor or standard solution was added to each well. Twenty-five μl of a 30 μg/ml solution of purified αV β3 in assay buffer was pipetted into the coated plate. The final concentration of receptor in the assay well was about 15 μg/ml. The plate was incubated on a shaker for 60 minutes. Meanwhile, for each microtite plate, 6 ml buffer solution containing 1.5 μg/ml of mouse monoclonal antibody specific for β3 is prepared. To this solution was added the secondary antibody which is anti-mouse-Fc-HRP antibody conjugate. For example, for one plate, 6 ml of a 1.5 μg/ml mouse Mab solution was prepared to which was added 1 μl of anti-mouse-Fc-HRP antibody stock, (this represents a 1:6000 dilution of the antibody--HRP conjugate). This mixture was allowed to incubate during the receptor-inhibitor incubation. The assay plates were washed 4 times with PBS-Tween and 50 μl/well of the antibody mixture was then pipetted into the plate for a 60 minute incubation. The plate was washed 4 times and the color reaction was developed with 50 μl/well of 0.67 mg/ml o-phenyldiamine in PBS containing 0.012% H2 O2. Alternatively, 16 mM citric acid, 50 mM Na2 PO4 at pH 5.0 can be used as a substrate buffer. The reaction is stopped with 50 μl/well 1 M H2 SO4. The plates were read at 492-405 nm and the data analyzed by four-parameters fit.
Briefly, 1:4 mixture of labelled and unlabelled phosphatidylcholine (PC) liposomes was dissolved under nitrogen and diluted with an equal volume of purified receptor (purified as described in Example II) to achieve a fixed predetermined receptor-liposome concentration ratio. This mixture was then dialyzed overnight at 4° C. in phosphate buffered saline (PBS) containing 1 mM Ca^2+. An aliquot of the dialyzed sample was counted to assess radioactive content; the receptor-liposome mixture was then diluted to obtain a set radioactivity per unit volume. […]

[8] = system: coronary thrombosis; experiment: Electrically induced canine coronary thrombosis, time to full occlusion; type: in vivo; settings: dog
Experimental: Male mongrel dogs weighing 14 to 20 kg were selected based on proper aggregation of their platelets in response to arachidonic acid, collagen, and adenosine disphosphate (ADP) and based on similar weights and hemodynamic properties.
Before surgery, the animals were anesthetized with sodium pentobarbital (30 mg/kg, i.v.) and then intubated and ventilated on room air with positive pressure using a respirator (Harvard Apparatus, S. Natick, Mass.) at a volume of 30 ml/kg and a frequency of 12 breaths/min. Surgery, performed under aseptic conditions, was begun with the placement of cannulae into the left carotid artery and jugular vein for monitoring arterial blood pressure (Statham P23 pressure transducer, Gould, Inc., Cardiovascular Products, Oxnard, Calif.) and administering intravenous fluids.
The heart was exposed via a left thoracotomy through the 5th intercostal space. […]
Animals were randomly assigned to two treatment groups: vehicle control (i.e., normal saline) or RGD peptides at various concentrations. […] The anti-thrombotic effects of the peptides were monitored until 30 minutes after the occurrence of a persistent, occlusive thrombus or five hours after the initiation of electrical stimulation (whichever resulted first). […]
Coronary thrombosis was quantified as the time to full occlusion. […]

[9] = system: Gore-tex vascular graft thrombosis; experiment: Platelet and fibrinogen uptake by Gore-Tex grafts in baboon ex vivo shunt; settings: baboon animal 2, 10 mg/kg bolus IV + 10 mg/kg/hr infusion for two hours
Experimental: Adult male baboons (weighing 16 to 25 kg) were used in these studies. These were sedated with ketamine hydrochloride (200 to 250 mg intramuscular injection) and maintained under anesthesia with sodium pentobarbital (50 to 75 mg administered intravenously as necessary).
Twenty-four hours before the ex vivo shunt was established, platelets were isolated from 500 ml of blood from the test animal and labelled with ca. 500 microcuries of indium-111 oxine (Medi+Physics, Emeryville, Calif.), which irreversibly and specifically binds to platelets with an efficiency of 50%. Immediately after labelling, these platelets were then injected back into the animal and allowed to circulate for 24 hours. Immediately before the start of the study, fibrinogen that had been isolated from the animal and labelled with iodine-131 (DuPont Nuclear, Boston, Mass.) was also injected back into the animal. Also at this time, baseline determinations of the clotting and template bleeding times were made, and blood samples were drawn for hematology studies.
To establish the ex vivo shunt, the femoral artery and vein were percutaneously cannulated with introducer catheters (KMA Inc., Mansfield, Mass.). […]
Platelet deposition onto the grafts was monitored by dynamic scanning with a gamma camera (Sigma 400, Ohio Nuclear, Inc., Sohon, Ohio), which detects the gamma radiation emitted by the ^111 indium-labelled platelets. […]

[10] = system: platelets; experiment: Baboon ex vivo platelet aggregation (ADP); type: in vivo; settings: baboon animal 2, PRP, ADP 10 μm
Experimental: At one- and two-hour time points, template bleeding times were measured, and blood samples were drawn to assess the hematology aggregation studies. Platelet aggregation studies were performed as described in Example V using ADP as the stimulus.
In addition, platelet aggregation studies were conducted on PRP derived from the second animal. Whole blood was drawn at three time points (0, 1 and 2 hours) of both control and experimental shunts.

T1 sequence (P06756 31-889 limits assumed): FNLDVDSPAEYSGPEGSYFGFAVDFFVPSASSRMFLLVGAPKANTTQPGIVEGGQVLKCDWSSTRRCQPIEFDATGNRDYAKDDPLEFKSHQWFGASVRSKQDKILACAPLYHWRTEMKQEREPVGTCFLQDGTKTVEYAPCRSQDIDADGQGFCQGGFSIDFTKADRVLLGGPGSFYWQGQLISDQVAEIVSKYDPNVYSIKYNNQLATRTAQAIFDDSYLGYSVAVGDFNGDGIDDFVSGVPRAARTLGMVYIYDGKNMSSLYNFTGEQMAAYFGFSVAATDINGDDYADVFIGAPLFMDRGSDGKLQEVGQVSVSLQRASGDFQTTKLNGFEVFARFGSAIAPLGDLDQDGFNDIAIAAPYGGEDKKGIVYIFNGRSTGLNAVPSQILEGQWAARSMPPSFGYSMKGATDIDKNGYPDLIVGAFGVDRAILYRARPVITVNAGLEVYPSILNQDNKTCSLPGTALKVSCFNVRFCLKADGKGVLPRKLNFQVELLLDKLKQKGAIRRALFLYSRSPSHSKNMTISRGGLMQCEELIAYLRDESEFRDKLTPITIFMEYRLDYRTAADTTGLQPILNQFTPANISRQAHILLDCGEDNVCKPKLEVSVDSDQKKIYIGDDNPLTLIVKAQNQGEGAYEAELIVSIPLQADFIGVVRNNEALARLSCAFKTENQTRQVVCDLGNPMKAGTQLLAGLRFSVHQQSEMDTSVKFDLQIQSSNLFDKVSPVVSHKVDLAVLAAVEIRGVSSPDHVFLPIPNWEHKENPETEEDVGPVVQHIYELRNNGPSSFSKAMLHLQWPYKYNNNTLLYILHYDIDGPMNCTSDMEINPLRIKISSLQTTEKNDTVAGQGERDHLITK
T1 sequence (P06756 891-1048 partner limits assumed): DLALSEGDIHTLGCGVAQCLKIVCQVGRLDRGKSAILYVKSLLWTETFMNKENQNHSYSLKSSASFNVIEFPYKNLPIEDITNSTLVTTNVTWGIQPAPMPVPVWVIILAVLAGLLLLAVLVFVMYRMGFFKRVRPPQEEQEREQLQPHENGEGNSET
T1 sequence (P05106 27-788): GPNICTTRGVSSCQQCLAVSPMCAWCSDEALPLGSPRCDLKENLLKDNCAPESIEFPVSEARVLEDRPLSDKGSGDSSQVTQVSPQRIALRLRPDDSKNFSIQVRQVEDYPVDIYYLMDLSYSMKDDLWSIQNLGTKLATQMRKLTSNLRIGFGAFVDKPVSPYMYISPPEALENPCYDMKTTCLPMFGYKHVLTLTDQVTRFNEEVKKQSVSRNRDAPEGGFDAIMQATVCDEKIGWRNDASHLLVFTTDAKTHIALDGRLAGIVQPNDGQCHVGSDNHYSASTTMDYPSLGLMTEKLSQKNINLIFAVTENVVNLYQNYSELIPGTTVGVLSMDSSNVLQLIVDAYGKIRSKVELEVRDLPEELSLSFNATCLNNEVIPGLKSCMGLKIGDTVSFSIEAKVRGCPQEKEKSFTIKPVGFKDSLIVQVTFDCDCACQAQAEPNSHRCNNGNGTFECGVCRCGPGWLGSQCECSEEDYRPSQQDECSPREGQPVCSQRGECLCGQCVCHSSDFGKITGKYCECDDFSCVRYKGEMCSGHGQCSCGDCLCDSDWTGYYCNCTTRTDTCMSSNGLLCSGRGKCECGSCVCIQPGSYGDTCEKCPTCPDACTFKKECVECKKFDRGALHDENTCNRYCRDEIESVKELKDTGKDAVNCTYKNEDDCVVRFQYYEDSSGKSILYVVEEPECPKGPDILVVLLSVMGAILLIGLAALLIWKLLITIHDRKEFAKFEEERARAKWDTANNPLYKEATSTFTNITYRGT
Sequence of GP IIb/IIIa (P08514 32-887 limits assumed): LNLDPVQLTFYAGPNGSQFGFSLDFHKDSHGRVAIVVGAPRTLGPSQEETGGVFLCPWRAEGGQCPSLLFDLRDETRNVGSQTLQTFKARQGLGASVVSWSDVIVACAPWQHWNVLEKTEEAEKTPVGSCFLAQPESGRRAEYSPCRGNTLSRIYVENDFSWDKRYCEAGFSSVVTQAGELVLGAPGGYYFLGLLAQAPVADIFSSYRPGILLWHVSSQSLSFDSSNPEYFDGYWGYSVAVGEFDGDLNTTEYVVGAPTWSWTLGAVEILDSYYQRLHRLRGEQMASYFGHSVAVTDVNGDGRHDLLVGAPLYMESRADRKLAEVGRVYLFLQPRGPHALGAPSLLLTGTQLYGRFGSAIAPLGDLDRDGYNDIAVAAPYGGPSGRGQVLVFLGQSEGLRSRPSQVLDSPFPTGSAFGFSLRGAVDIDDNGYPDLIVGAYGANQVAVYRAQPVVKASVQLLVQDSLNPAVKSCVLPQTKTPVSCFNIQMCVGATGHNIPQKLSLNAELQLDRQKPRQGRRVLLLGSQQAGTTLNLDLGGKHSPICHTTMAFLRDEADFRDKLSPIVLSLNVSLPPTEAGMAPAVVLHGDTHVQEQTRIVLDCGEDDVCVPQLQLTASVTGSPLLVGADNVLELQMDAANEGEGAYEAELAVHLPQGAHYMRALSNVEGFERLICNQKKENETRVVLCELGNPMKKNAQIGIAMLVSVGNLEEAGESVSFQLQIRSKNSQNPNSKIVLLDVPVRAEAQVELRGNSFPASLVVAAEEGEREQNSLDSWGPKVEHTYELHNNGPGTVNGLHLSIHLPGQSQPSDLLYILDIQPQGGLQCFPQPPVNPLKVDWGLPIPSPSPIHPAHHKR
Sequence of GP IIb/IIIa (P08514 891-1039 partner limits assumed): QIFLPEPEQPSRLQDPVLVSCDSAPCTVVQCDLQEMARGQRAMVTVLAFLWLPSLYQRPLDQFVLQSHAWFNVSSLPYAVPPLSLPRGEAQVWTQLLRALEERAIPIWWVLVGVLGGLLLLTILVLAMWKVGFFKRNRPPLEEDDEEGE
Sequence of GP IIb/IIIa (P05106 27-788): as the sequence (P05106 27-788) above

Q: What does the source list for R2 (Pen)GRGDTPCA?
A: IC50 [1]: 2700 nM; IC50 [2]: 8200 nM

Q: With R(Pen)GHRGDWRCR [4Q] as the substance, how does the “ex vivo platelet activation by collagen” value ([3]; 5 mg/kg) read?
A: near-maximal inhibition

Q: And the “ex vivo platelet response to ADP and AA” value ([3]; 5 mg/kg, all three time points)?
A: completely unresponsive

Q: And the “ex vivo platelet aggregation by all three stimuli” value [3]?
A: prevented platelet aggregation by all three stimuli

Q: And the PBF [4]?
A: 9 units

Q: For RGD(O-Me-Y)RE-NH2 [21I], which “reactivity relative to 8X in platelet aggregation” value [5] is on record?
A: about three-fold

Q: For Ac--CNPRGD(Y--OMe)RCNH2 [8X], which “differential inhibition of ligand binding to GP IIb/IIIa” value [6] is on record?
A: inhibits the binding of fibrinogen to GP IIb/IIIa more than it inhibits the binding of fibronectin and vitronectin to the same integrin

Q: For (Mpr)RGD(O-Me-Y)RC-NH2 [16A], which “reactivity relative to 8X in platelet aggregation” value [5] is on record?
A: about two-fold

Q: Which IC50 [7] does the source give for VRGDSPDG here?
A: 240 nM

Q: For FRGDSPDG, which IC50 [7] is on record?
A: 40 nM

Q: Which results are given for G(Pen)GHRGDLRCA [2G]?
A: coronary thrombosis, time to full occlusion ([8]; 10 mg/kg): did not significantly influence; ex vivo ADP-stimulated aggregation ([3]; 10 mg/kg, 1, 3 and 5 h): substantially inhibited; reduction in labelled fibrinogen uptake by graft [9]: 78%; reduction in labelled platelet uptake by graft [9]: 84%; ex vivo platelet aggregation response [10]: completely unresponsive

Q: What does the source list for R(Pen GRGDWPCR [4R]?
A: IC50 [1]: 530 nM; coronary thrombosis, time to full occlusion ([8]; 3 mg/kg): ineffective; reduction of ex vivo aggregation relative to control levels ([3]; one hour): 20-58%; reduction of ex vivo aggregation relative to control levels ([3]; three and five hours): 75-100% and 72-100%; ex vivo platelet aggregation by all three stimuli [3]: unresponsive to all modes of stimulation at all time points

Q: For GNPRGD(O-Me-Y)RD-NH2 [20Q], which “potency relative to 17J” value ([5]; times more potent than 17J) is on record?
A: about three

Q: What about the “potency relative to 18J” value ([5]; times more potent than 18J) of the same substance?
A: about 20

Q: Which IC50 [7] does the source give for LRGDSPDG here?
A: 200 nM

Q: Which IC50 [7] does the source give for YRGDSPDG here?
A: 80 nM
